Measured values reported in patent publication US20140213513A1 (Sanofi, priority 2012, published 2014).
*1 amine or outer side, *2 acyl side, *3 side chain or, on linkers, in order; H or OH if unused. Where a SMILES comes first, the peptide text is derived from it. Where no end group is shown, it is not given here. Side-chain parts run from the residue outwards. [ ]: non-standard residue; d: D form. The star is where a group is joined. γGlu = O=C(O)[C@H](CCC(=O)[*:2])N[*:1]; Stearoyl = CCCCCCCCCCCCCCCCCC(=O)*; Palmitoyl = CCCCCCCCCCCCCCCC(=O)*; Aib = CC(C)(N)C(=O)O

T1: human GIP receptor (hGIP R) (Homo sapiens, UniProt P48546)
T1 construct: expressed in transfected cells
T1 sequence (P48546 22-466): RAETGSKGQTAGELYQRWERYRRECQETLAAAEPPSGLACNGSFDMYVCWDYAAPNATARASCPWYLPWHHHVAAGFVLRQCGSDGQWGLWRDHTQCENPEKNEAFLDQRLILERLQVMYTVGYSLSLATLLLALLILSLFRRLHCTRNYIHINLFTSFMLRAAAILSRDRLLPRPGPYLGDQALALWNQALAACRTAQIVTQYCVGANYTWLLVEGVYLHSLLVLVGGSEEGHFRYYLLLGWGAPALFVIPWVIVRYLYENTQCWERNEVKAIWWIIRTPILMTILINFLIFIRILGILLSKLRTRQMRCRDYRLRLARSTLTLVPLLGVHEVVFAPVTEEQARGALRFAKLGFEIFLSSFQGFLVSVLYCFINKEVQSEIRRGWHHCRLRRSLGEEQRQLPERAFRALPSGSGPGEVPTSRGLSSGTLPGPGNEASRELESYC

T2: human GIP receptor (human, UniProt P48546 22-466)
T2 sequence (looked up): T1 sequence (P48546 22-466)

B1: exendin-4 peptide analogue SEQ ID NO: 37 (peptide)
peptide: Y[Aib]EGTFTSDLSIQK([γGlu-Palmitoyl])EERAAHEFIEWLKR[Aib]GPSSGAPPPS-NH2
modifications: N-terminus assumed
SMILES: CCCCCCCCCCCCCCCC(=O)N[C@@H](CCC(=O)NCCCC[C@H](NC(=O)[C@H](CCC(N)=O)NC(=O)[C@@H](NC(=O)[C@H](CO)NC(=O)[C@H](CC(C)C)NC(=O)[C@H](CC(=O)O)NC(=O)[C@H](CO)NC(=O)[C@@H](NC(=O)[C@H](Cc1ccccc1)NC(=O)[C@@H](NC(=O)CNC(=O)[C@H](CCC(=O)O)NC(=O)C(C)(C)NC(=O)[C@@H](N)Cc1ccc(O)cc1)[C@@H](C)O)[C@@H](C)O)[C@@H](C)CC)C(=O)N[C@@H](CCC(=O)O)C(=O)N[C@@H](CCC(=O)O)C(=O)N[C@@H](CCCNC(=N)N)C(=O)N[C@@H](C)C(=O)N[C@@H](C)C(=O)N[C@@H](Cc1c[nH]cn1)C(=O)N[C@@H](CCC(=O)O)C(=O)N[C@@H](Cc1ccccc1)C(=O)N[C@H](C(=O)N[C@@H](CCC(=O)O)C(=O)N[C@@H](Cc1c[nH]c2ccccc12)C(=O)N[C@@H](CC(C)C)C(=O)N[C@@H](CCCCN)C(=O)N[C@@H](CCCNC(=N)N)C(=O)NC(C)(C)C(=O)NCC(=O)N1CCC[C@H]1C(=O)N[C@@H](CO)C(=O)N[C@@H](CO)C(=O)NCC(=O)N[C@@H](C)C(=O)N1CCC[C@H]1C(=O)N1CCC[C@H]1C(=O)N1CCC[C@H]1C(=O)N[C@@H](CO)C(N)=O)[C@@H](C)CC)C(=O)O

Legend:
[1] = target: T3, human GLP-1 receptor (hGLP-1 R) (Homo sapiens, UniProt P43220); assay: cAMP response of HEK-293 cells stably expressing human GLP-1 receptor (HTRF); assay type: cell-based; conditions: Table 7; cAMP formation
T3 construct: expressed in transfected cells
Experimental: (§1) cAMP content of cells was determined using a kit from Cisbio Corp. (cat. no. 62AM4PEC) based on HTRF (Homogenous Time Resolved Fluorescence). For preparation, cells were split into T175 culture flasks and grown overnight to near confluency in medium (DMEM/10% FBS). Medium was then removed and cells washed with PBS lacking calcium and magnesium, followed by proteinase treatment with accutase (Sigma-Aldrich cat. no. A6964). Detached cells were washed and resuspended in assay buffer (1×HBSS; 20 mM HEPES, 0.1% BSA, 2 mM IBMX) and cellular density determined. They were then diluted to 400000 cells/ml and 25 μl-aliquots dispensed into the wells of 96-well plates. For measurement, 25 μl of test compound in assay buffer was added to the wells, followed by incubation for 30 minutes at room temperature.

[2] = target: T1, human GIP receptor (hGIP R); assay: cAMP response of HEK-293 cells stably expressing human GIP receptor (HTRF); assay type: cell-based; conditions: Table 7; cAMP formation
Experimental: as §1

[3] = target: T4, human glucagon receptor (hGLUC R) (Homo sapiens, UniProt P47871); assay: cAMP response of HEK-293 cells stably expressing human glucagon receptor (HTRF); assay type: cell-based; conditions: Table 7; cAMP formation
T4 construct: expressed in transfected cells
Experimental: as §1

human glucagon receptor = human glucagon receptor (human, UniProt P47871 26-477); assay: cell-based or functional assay
human GIP receptor = target: T2, human GIP receptor; assay: cell-based or functional assay
human GLP-1 receptor = human GLP-1 receptor (human, UniProt P43220 24-463); assay: cell-based or functional assay

T3 sequence (P43220 24-463): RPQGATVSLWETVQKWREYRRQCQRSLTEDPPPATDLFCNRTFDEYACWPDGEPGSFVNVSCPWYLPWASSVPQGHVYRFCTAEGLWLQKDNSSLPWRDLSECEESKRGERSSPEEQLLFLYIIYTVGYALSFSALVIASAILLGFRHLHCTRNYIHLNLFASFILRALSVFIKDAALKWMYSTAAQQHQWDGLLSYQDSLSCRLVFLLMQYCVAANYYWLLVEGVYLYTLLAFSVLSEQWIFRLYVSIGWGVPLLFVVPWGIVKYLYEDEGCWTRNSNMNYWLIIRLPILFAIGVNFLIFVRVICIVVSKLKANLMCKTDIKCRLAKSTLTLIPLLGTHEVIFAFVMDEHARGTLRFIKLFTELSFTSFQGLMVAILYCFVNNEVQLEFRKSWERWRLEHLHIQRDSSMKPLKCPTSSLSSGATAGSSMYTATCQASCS
T4 sequence (P47871 26-477): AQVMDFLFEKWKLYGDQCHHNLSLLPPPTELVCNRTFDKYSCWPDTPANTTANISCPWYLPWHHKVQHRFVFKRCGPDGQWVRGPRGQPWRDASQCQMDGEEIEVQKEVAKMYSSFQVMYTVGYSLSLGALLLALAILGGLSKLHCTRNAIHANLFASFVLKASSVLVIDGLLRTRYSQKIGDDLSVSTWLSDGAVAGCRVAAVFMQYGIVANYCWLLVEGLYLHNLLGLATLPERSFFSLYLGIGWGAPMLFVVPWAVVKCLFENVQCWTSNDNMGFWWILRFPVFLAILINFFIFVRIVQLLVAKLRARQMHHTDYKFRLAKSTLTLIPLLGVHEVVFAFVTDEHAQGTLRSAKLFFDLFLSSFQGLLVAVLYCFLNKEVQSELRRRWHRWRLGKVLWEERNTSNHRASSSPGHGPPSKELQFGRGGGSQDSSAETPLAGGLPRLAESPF
Sequence of human glucagon receptor (P47871 26-477): as above

Row | Molecule | EC50 [1] | EC50 [2] | EC50 [3] | EC50 hGLUC R (human glucagon receptor) | EC50 hGIP R (human GIP receptor) | EC50 hGLP-1 R (human GLP-1 receptor)
1 | CCCCCCCCCCCCCCCC(=O)N[C@@H](CCC(=O)NCCCC[C@H](NC(=O)[C@H](CCC(N)=O)NC(=O)[C@@H](NC(=O)[C@H](CO)NC(=O)[C@H](CC(C)C)NC(=O)[C@H](CC(=O)O)NC(=O)[C@H](CO)NC(=O)[C@@H](NC(=O)[C@H](Cc1ccccc1)NC(=O)[C@@H](NC(=O)CNC(=O)[C@H](CCC(=O)O)NC(=O)C(C)(C)NC(=O)[C@@H](N)Cc1ccc(O)cc1)[C@@H](C)O)[C@@H](C)O)[C@@H](C)CC)C(=O)N[C@@H](CCC(=O)O)C(=O)N[C@@H](CCCCN)C(=O)N[C@@H](CCCNC(=N)N)C(=O)N[C@@H](C)C(=O)N[C@@H](C)C(=O)NC(C)(C)C(=O)N[C@@H](CCC(=O)O)C(=O)N[C@@H](Cc1ccccc1)C(=O)N[C@H](C(=O)N[C@@H](CCC(=O)O)C(=O)N[C@@H](Cc1c[nH]c2ccccc12)C(=O)N[C@@H](CC(C)C)C(=O)N[C@@H](CCCCN)C(=O)N[C@@H](CCCNC(=N)N)C(=O)N[C@@H](C)C(=O)NCC(=O)N1CCC[C@H]1C(=O)N[C@@H](CO)C(=O)N[C@@H](CO)C(=O)NCC(=O)N[C@@H](C)C(=O)N1CCC[C@H]1C(=O)N1CCC[C@H]1C(=O)N1CCC[C@H]1C(=O)N[C@@H](CO)C(N)=O)[C@@H](C)CC)C(=O)O [SEQ ID NO: 20, Y-Aib-E-G-T-F-T-S-D-L-S-I-Q-K(yE-x53)-E-K-R-A-A-Aib-E-F-I-E-W-L-K- R-A-G-P-S-S-G-A-P-P-P-S-NH2] (H-Y[Aib]EGTFTSDLSIQK([γGlu-Palmitoyl])EKRAA[Aib]EFIEWLKRAGPSSGAPPPS-NH2) | 0.0082 nM | 0.0163 nM | 18.2 nM |  |  | 
2 | CCCCCCCCCCCCCCCC(=O)N[C@@H](CCC(=O)NCCCC[C@H](NC(=O)[C@H](CCC(N)=O)NC(=O)[C@@H](NC(=O)[C@H](CO)NC(=O)[C@H](CC(C)C)NC(=O)[C@H](CC(=O)O)NC(=O)[C@H](CO)NC(=O)[C@@H](NC(=O)[C@H](Cc1ccccc1)NC(=O)[C@@H](NC(=O)CNC(=O)[C@H](CCC(N)=O)NC(=O)C(C)(C)NC(=O)[C@@H](N)Cc1ccc(O)cc1)[C@@H](C)O)[C@@H](C)O)[C@@H](C)CC)C(=O)N[C@@H](CC(=O)O)C(=O)N[C@@H](CCCCN)C(=O)N[C@@H](CCCNC(=N)N)C(=O)N[C@@H](C)C(=O)N[C@H](C(=O)N[C@@H](CCC(N)=O)C(=O)N[C@@H](CC(C)C)C(=O)N[C@@H](Cc1ccccc1)C(=O)N[C@H](C(=O)N[C@@H](CCC(=O)O)C(=O)N[C@@H](Cc1c[nH]c2ccccc12)C(=O)N[C@@H](CC(C)C)C(=O)N[C@@H](CCCCN)C(=O)N[C@@H](CC(N)=O)C(=O)NCC(=O)NCC(=O)N1CCC[C@H]1C(=O)N[C@@H](CO)C(=O)N[C@@H](CO)C(=O)NCC(=O)N[C@@H](C)C(=O)N1CCC[C@H]1C(=O)N1CCC[C@H]1C(=O)N1CCC[C@H]1C(=O)N[C@@H](CO)C(N)=O)[C@@H](C)CC)C(C)C)C(=O)O [SEQ ID NO: 47, Y-Aib-Q-G-T-F-T-S-D-L-S-I-Q-K(yE-x53)-DKRAVQLFIEWLKNGGPSSGAPPPS-NH2] (H-Y[Aib]QGTFTSDLSIQK([γGlu-Palmitoyl])DKRAVQLFIEWLKNGGPSSGAPPPS-NH2) | 0.0156 nM |  | 2.39 nM |  |  | 
3 | CCCCCCCCCCCCCCCC(=O)N[C@@H](CCC(=O)NCCCC[C@H](NC(=O)[C@H](CCC(N)=O)NC(=O)[C@@H](NC(=O)[C@H](CO)NC(=O)[C@H](CC(C)C)NC(=O)[C@H](CC(=O)O)NC(=O)[C@H](CO)NC(=O)[C@@H](NC(=O)[C@H](Cc1ccccc1)NC(=O)[C@@H](NC(=O)CNC(=O)[C@H](CCC(=O)O)NC(=O)C(C)(C)NC(=O)[C@@H](N)Cc1ccc(O)cc1)[C@@H](C)O)[C@@H](C)O)[C@@H](C)CC)C(=O)N[C@@H](CC(=O)O)C(=O)N[C@@H](CCCCN)C(=O)N[C@@H](CCCNC(=N)N)C(=O)N[C@@H](CCCCN)C(=O)N[C@@H](C)C(=O)N[C@@H](CCC(N)=O)C(=O)N[C@@H](CC(=O)O)C(=O)N[C@@H](Cc1ccccc1)C(=O)N[C@H](C(=O)N[C@@H](CCC(=O)O)C(=O)N[C@@H](Cc1c[nH]c2ccccc12)C(=O)N[C@@H](CC(C)C)C(=O)N[C@@H](CCCCN)C(=O)N[C@@H](CC(N)=O)C(=O)NCC(=O)NCC(=O)N1CCC[C@H]1C(=O)N[C@@H](CO)C(=O)N[C@@H](CO)C(=O)NCC(=O)N[C@@H](C)C(=O)N1CCC[C@H]1C(=O)N1CCC[C@H]1C(=O)N1CCC[C@H]1C(=O)N[C@@H](CO)C(N)=O)[C@@H](C)CC)C(=O)O [SEQ ID NO: 54, Y-Aib-E-G-T-F-T-S-D-L-S-I-Q-K(yE-x53)-DKRKAQDFIEWLKNGGPSSGAPPPS-NH2] (H-Y[Aib]EGTFTSDLSIQK([γGlu-Palmitoyl])DKRKAQDFIEWLKNGGPSSGAPPPS-NH2) | 0.0668 nM |  | 2.62 nM |  |  | 
4 | CCCCCCCCCCCCCCCCCC(=O)N[C@@H](CCC(=O)NCCCC[C@H](NC(=O)[C@H](CCC(N)=O)NC(=O)[C@@H](NC(=O)[C@H](CO)NC(=O)[C@H](CC(C)C)NC(=O)[C@H](CC(=O)O)NC(=O)[C@H](CO)NC(=O)[C@@H](NC(=O)[C@H](Cc1ccccc1)NC(=O)[C@@H](NC(=O)CNC(=O)[C@H](CCC(=O)O)NC(=O)C(C)(C)NC(=O)[C@@H](N)Cc1ccc(O)cc1)[C@@H](C)O)[C@@H](C)O)[C@@H](C)CC)C(=O)N[C@@H](CCC(=O)O)C(=O)N[C@@H](CCC(=O)O)C(=O)N[C@@H](CCCNC(=N)N)C(=O)N[C@@H](C)C(=O)N[C@H](C(=O)N[C@@H](CCCNC(=N)N)C(=O)N[C@@H](CC(C)C)C(=O)N[C@@H](Cc1ccccc1)C(=O)N[C@H](C(=O)N[C@@H](CCC(=O)O)C(=O)N[C@@H](Cc1c[nH]c2ccccc12)C(=O)N[C@@H](CC(C)C)C(=O)N[C@@H](CCCCN)C(=O)N[C@@H](C)C(=O)NCC(=O)NCC(=O)N1CCC[C@H]1C(=O)N[C@@H](CO)C(=O)N[C@@H](CO)C(=O)NCC(=O)N[C@@H](C)C(=O)N1CCC[C@H]1C(=O)N1CCC[C@H]1C(=O)N1CCC[C@H]1C(=O)N[C@@H](CO)C(N)=O)[C@@H](C)CC)C(C)C)C(=O)O [SEQ ID NO: 64, Y-Aib-E-G-T-F-T-S-D-L-S-I-Q-K(yE-x70)-EERAVRLFIEWLKAGGPSSGAPPPS-NH2] (H-Y[Aib]EGTFTSDLSIQK([γGlu-Stearoyl])EERAVRLFIEWLKAGGPSSGAPPPS-NH2) |  | 0.0096 nM | 75.1 nM |  |  | 
5 | B1 |  |  |  | 12.1 nM | 0.0121 nM | 0.0066 nM
